The values that follow come from US9187413B2, “Peripherally restricted FAAH inhibitors” (The Regents of the University of California, priority 2010, dated 2015).

One data set has as its system Fos protein. Nature of the data set: Formalin-induced Fos expression in lumbar spinal cord. In kind it is in vivo. As to conditions: rats, 2 mg-kg^-1, i.p., administered without URB937. The protocol: Fos expression. We measured Fos protein levels by quantitative immunocytochemistry^5 on slices of lumbar (L4/L5) spinal cord from male Sprague-Dawley rats.
Fos immunohistochemistry Two hours after formalin injection into the dorsal paw, rats received a lethal dose of Nembutal (50 mg-mL^−1). They were perfused through the heart with 100 mL of 1% heparinized phosphate buffered saline (PBS) followed by 300 mL of ice-cold 4% paraformaldehyde. The lumbar-sacral region of the spinal cord was collected from each rat. Spinal cords were post fixed in 4% paraformaldehyde at 4° C. for 24 h and then cryoprotected in 30% sucrose at 4° C. for 24-48 hours. Spinal cords were cryostat-cut into 40 μm transverse sections at the level of the lumbar enlargement (L4/L5). Free floating alternating sections were kept in a series of wells filled with PBS. Every fourth section was processed for Fos immunoreactivity to ensure that the same cell would not be counted twice. Endogenous peroxidases were inactivated by incubation in hydrogen peroxide. […]
Selection of sections and quantification of the number of Fos-positive cells was performed by an observer blinded to experimental conditions. […] Using Image J, Fos expressing cells were counted in each subdivision, regardless of staining intensity, by an observer blinded to experimental treatments.

For data set [1], the system named is carrageenan-induced inflammation. As to the kind of experiment: Carrageenan-induced hyperalgesia, allodynia and paw edema. To be noted: Swiss mice, 1 mg-kg^-1, i.p., carrageenan. The class given is in vivo, mice. The protocol:
Behavioral tests. We measured nocifensive responses elicited by i.p. injection of acetic acid in male Swiss and C57B1/6 (wild-type or FAAH-deficient) mice^40, intraplantar injection of carrageenan in male Swiss mice^20, intraplantar injection of formalin in male Sprague-Dawley rats^41, and sciatic nerve ligation in male Swiss mice^39.
Behavioral tests Acetic acid-induced writhing was measured in Swiss mice or C57B1/6 mice (wild-type and FAAH-deficient), as described^40 with minor modifications. Briefly, the mice were acclimated to the experimental room for 2 h. Each animal was injected with acetic acid (150 μL, 0.6% in saline) and placed into a glass cylinder. Abdominal stretches (extension of body and hind limbs) were counted for 20 min, starting 5 min after acetic acid injection. […] Behavior was scored by an observer blinded to the treatment conditions. Formalin-induced nociception was assessed in Sprague-Dawley rats, as described^41. The rats were singly housed and kept in a shared holding room under a 12:12 h light:dark cycle. They were given free access to food and water, and allowed to acclimate to the facility for a week before testing. […] They were acclimated to the observation container (clear plexiglas box, 29×29×25 cm) for 15 min before receiving an injection of formalin (50 μL, 5% in saline) into the dorsal surface of the right hind paw. Immediately after formalin injection, the rats were returned to the observation container and nocifensive behavior was recorded for 60 min with a video camera. Recordings were analyzed by observers blinded to treatment conditions. Nocifensive behavior was measured continuously for 60 min^41. […] Each 5-min bin was analyzed for time spent (1) lifting and (2) licking or biting the injected paw. Nocifensive behavior was analyzed using the composite pain score weighted scores technique (CPS-WST1,2) calculated for the entire time of observation (0-60 min) and, separately, for the first (0-10 min) and second phase (10-60 min) of the behavioral response^46. The area under the curve (AUC) corresponding to CPS-WST1,2 was calculated using the trapezoidal rule. Paw edema was induced in mice by injection into the right hind paws of 50 μL of sterile saline containing 1% λ-carrageenan. Paw volumes were measured using a plethysmometer (Ugo Basile, Milan, Italy). […] Rimonabant and AM630 (1 mg kg^−1, i.p.) were injected 30 min before carrageenan. Mechanical hyperalgesia was assessed by measuring the latency(s) to withdraw the paw from a constant mechanical pressure exerted onto its dorsal surface. A 15-g calibrated glass cylindrical rod (diameter=10 mm) chamfered to a conical point (diameter=3 mm) was used to exert the mechanical force. The weight was suspended vertically between two rings attached to a stand and was free to move vertically. A cutoff time of 3 min was used. Thermal hyperalgesia was assessed as described^47, measuring the latency to withdraw the hind paw from a focused beam of radiant heat (thermal intensity: infrared 3.0) applied to the plantar surface, using a commercial apparatus (Ugo Basile, Varese, Italy). The cutoff time was set at 30 s. Mechanical allodynia was assessed by applying a graded force to the plantar hind paw surface with a Von Frey filament, using a Dynamic Plantar Anesthesiometer (Ugo Basile). The cutoff force was set at 50 g.

The next data set concerns the target rat brain FAAH (Rattus norvegicus (Rat), UniProt P97612). To be noted: membrane preparation of rat brain. From the text:
Enzyme assays. We conducted standard FAAH and monoacylglycerol lipase assays as described^15,37, using as substrates [^3H]-anandamide (a gift of the National Institute on Drug Abuse) and 2-oleoyl-sn-glycerol (Nu-Check Prep, Elysian, Minn.), respectively.

In a further data set the target is FAAH (Mus musculus (Mouse), UniProt O08914). Nature of the data set: FAAH inhibition ex vivo after systemic administration in mice. To be noted: for ability to access the brain after systemic administration: mice, 1 mg-kg^-1, i.p.; for inhibition at 1 mg/kg: mouse, ip, ex vivo 1 h after a single injection in mice (1 mg-kg^-1, i.p.). Here is the method:
Drug preparation for in vivo experiments Drugs were dissolved in polyethylene glycol 400/Tween-80/saline (1/1/18; by volume) and administered by i.p. (5-10 mL-kg^−1) or s.c. injection (10 mL-kg^−1).

Setting [2] is: brain, read-out: FAAH Inhibition in brain (%).
Where [3] appears, read: liver, read-out: FAAH Inhibition in liver (%).

SMILES strings stand for the structures. Read-outs that look alike come from different tables or passages of the source.

Sequence of rat brain FAAH (P97612 whole entry): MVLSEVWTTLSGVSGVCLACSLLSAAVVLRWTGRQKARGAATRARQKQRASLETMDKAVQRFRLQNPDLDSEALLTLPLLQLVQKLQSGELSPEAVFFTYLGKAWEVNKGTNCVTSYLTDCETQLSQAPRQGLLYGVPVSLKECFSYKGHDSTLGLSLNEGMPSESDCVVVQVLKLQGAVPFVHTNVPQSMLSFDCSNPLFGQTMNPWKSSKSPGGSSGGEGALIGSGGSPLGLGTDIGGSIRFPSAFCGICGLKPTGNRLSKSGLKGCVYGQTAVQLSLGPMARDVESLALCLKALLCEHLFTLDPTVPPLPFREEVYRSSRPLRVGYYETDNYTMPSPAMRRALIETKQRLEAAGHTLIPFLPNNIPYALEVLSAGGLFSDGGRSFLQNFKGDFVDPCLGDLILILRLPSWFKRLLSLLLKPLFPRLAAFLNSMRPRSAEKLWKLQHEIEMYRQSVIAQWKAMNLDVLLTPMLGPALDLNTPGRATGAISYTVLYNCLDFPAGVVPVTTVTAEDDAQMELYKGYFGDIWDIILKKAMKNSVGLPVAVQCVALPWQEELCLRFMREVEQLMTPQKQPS
Sequence of FAAH (O08914 whole entry): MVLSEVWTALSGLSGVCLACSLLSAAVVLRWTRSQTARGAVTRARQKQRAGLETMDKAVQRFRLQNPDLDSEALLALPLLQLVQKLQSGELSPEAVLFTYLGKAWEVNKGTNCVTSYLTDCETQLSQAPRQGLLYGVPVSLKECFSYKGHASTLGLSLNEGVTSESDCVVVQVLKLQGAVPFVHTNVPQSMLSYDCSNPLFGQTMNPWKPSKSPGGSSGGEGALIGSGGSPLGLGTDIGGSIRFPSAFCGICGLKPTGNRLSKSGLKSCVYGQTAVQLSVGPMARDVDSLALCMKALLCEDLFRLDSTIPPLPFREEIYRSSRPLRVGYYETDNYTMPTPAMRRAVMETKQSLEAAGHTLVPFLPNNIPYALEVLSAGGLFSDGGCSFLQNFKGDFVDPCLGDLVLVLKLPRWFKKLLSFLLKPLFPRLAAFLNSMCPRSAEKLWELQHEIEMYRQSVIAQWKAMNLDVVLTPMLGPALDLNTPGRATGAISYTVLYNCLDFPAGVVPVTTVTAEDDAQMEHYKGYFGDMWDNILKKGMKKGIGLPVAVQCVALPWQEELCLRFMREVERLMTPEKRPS

Consider `Cc1c(C(=O)NN2CCCCC2)nn(-c2ccc(Cl)cc2Cl)c1-c1ccc(Cl)cc1` [rimonabant, reference compound], for which the “formalin-induced Fos levels, antagonist without URB937” value in the data set with Fos protein is given as “did not significantly alter Fos levels”. Besides, the “hyperalgesia and allodynia in contralateral (non-injected) paws” value in data set [1] is recorded as “had no effect”.
In general, IC50 refers to the midpoint of a concentration-inhibition curve. A higher IC50 goes with a need for much substance. For orientation: inhibition means the change of the read-out against control, counted positive when it falls. At rat brain FAAH, `NC(=O)c1cccc(-c2cc(OC(=O)NC3CCCCC3)ccc2F)c1` [Compound 1e] gave an IC50 of 49.7 ± 5.8 nM. The “ability to access the brain after systemic administration” value (“ability to access the brain” for short) at FAAH is recorded as “readily entered the brain”. Moreover, the results for the inhibition at 1 mg/kg on FAAH (setting [2]) and at FAAH (setting [3]) were 89.7 ± 1.3% and 90.7 ± 1.2%, respectively.
For the molecule `Cc1ccc(OC(=O)NC2CCCCC2)cc1-c1cccc(C(N)=O)c1` [Compound 1d], the half-maximal inhibitory concentration (IC50) against rat brain FAAH came to 20.5 ± 0.6 nM. The “ability to access the brain” value at FAAH is given as “readily entered the brain”. For the same molecule, the figures for the inhibition at 1 mg/kg on FAAH (setting [2]) and on FAAH (setting [3]) were 91.9 ± 1.5% and 93 ± 1.1%, respectively.
Turning to `NC(=O)c1cccc(-c2cccc(OC(=O)NC3CCCCC3)c2)c1` [Compound 1a, cyclohexylcarbamic acid 3′-carbamoylbiphenyl-3-yl ester, reference compound], at FAAH (setting [2]), the inhibition at 1 mg/kg turned out to be 96.2 ± 0.4%.
For `COc1ccc(C(=O)c2c(C)n(CCN3CCOCC3)c3cc(I)ccc23)cc1` [AM630, reference compound], in data set [1], the “hyperalgesia and allodynia in contralateral (non-injected) paws” value is reported as “had no effect”.
`NC(=O)c1cccc(-c2cc(OC(=O)NC3CCCCC3)ccc2N)c1` [Compound 1f] returned a half-maximal inhibitory concentration (IC50) against rat brain FAAH of 42.5 ± 4.2 nM. Moreover, the “ability to access the brain” value on FAAH is reported as “largely excluded”. Besides, the inhibition at 1 mg/kg at FAAH (setting [2]) turned out to be 23.2 ± 2.1%; on FAAH (setting [3]) it was 92.2 ± 0.6%.
Take `COc1ccc(OC(=O)NC2CCCCC2)cc1-c1cccc(C(N)=O)c1` [Compound 1c]: the “ability to access the brain” value on FAAH is “readily entered the brain”.
